Assay results published in PubChem BioAssay (NCI).
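How tested: cells in 96-well plates exposed to compound for 48 hours at five concentrations. Here, GI50 denotes the concentration required for 50% inhibition of growth. The concentration for full growth arrest is given as TGI.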

Key:
Test in all cases: NCI-60 cell line screen, 48 h
786-0 renal = tested on: 786-0 renal
A498 renal = tested on: A498 renal
A549 NSCLC = tested on: A549 NSCLC
ACHN renal = tested on: ACHN renal
BT-549 breast = tested on: BT-549 breast
CAKI-1 renal = tested on: CAKI-1 renal
CCRF-CEM leukemia = tested on: CCRF-CEM leukemia
COLO 205 colon = tested on: COLO 205 colon
DU-145 prostate = tested on: DU-145 prostate
EKVX NSCLC = tested on: EKVX NSCLC
HCC-2998 colon = tested on: HCC-2998 colon
HCT-116 colon = tested on: HCT-116 colon
HCT-15 colon = tested on: HCT-15 colon
HL-60(TB) leukemia = tested on: HL-60(TB) leukemia
HOP-62 NSCLC = tested on: HOP-62 NSCLC
HOP-92 NSCLC = tested on: HOP-92 NSCLC
HS 578T breast = tested on: HS 578T breast
HT29 colon = tested on: HT29 colon
IGROV1 ovarian = tested on: IGROV1 ovarian
K-562 leukemia = tested on: K-562 leukemia
KM12 colon = tested on: KM12 colon
LOX IMVI melanoma = tested on: LOX IMVI melanoma
M14 melanoma = tested on: M14 melanoma
MALME-3M melanoma = tested on: MALME-3M melanoma
MCF7 breast = tested on: MCF7 breast
MDA-MB-231 breast = tested on: MDA-MB-231 breast
MDA-MB-435 = tested on: MDA-MB-435
MOLT-4 leukemia = tested on: MOLT-4 leukemia
NCI-H226 lung = tested on: NCI-H226 lung
NCI-H23 lung = tested on: NCI-H23 lung
NCI-H460 lung = tested on: NCI-H460 lung
NCI-H522 lung = tested on: NCI-H522 lung
NCI/ADR-RES ovarian = tested on: NCI/ADR-RES ovarian
OVCAR-3 ovarian = tested on: OVCAR-3 ovarian
OVCAR-4 ovarian = tested on: OVCAR-4 ovarian
OVCAR-5 ovarian = tested on: OVCAR-5 ovarian
OVCAR-8 ovarian = tested on: OVCAR-8 ovarian
PC-3 prostate = tested on: PC-3 prostate
RPMI-8226 leukemia = tested on: RPMI-8226 leukemia
RXF 393 renal = tested on: RXF 393 renal
SF-268 CNS = tested on: SF-268 CNS
SF-295 CNS = tested on: SF-295 CNS
SF-539 CNS = tested on: SF-539 CNS
SK-MEL-2 melanoma = tested on: SK-MEL-2 melanoma
SK-MEL-28 melanoma = tested on: SK-MEL-28 melanoma
SK-MEL-5 melanoma = tested on: SK-MEL-5 melanoma
SK-OV-3 ovarian = tested on: SK-OV-3 ovarian
SN12C renal = tested on: SN12C renal
SNB-19 CNS = tested on: SNB-19 CNS
SNB-75 CNS = tested on: SNB-75 CNS
SR leukemia = tested on: SR leukemia
SW-620 colon = tested on: SW-620 colon
T-47D breast = tested on: T-47D breast
TK-10 renal = tested on: TK-10 renal
U251 CNS = tested on: U251 CNS
UACC-257 melanoma = tested on: UACC-257 melanoma
UACC-62 melanoma = tested on: UACC-62 melanoma
UO-31 renal = tested on: UO-31 renal

Compound: CCO/C=N/C1=C(C#N)C(c2ccc(Cl)cc2)c2sc3c(CC)cccc3c2O1 (stereo unspecified)
- GI50 (786-0 renal): 2.23 µM
- TGI (786-0 renal): 14 µM
- GI50 (A498 renal): 0.416 µM
- TGI (A498 renal): 10.7 µM
- GI50 (A549 NSCLC): 1.25 µM
- TGI (A549 NSCLC): 17.2 µM
- GI50 (ACHN renal): 1.21 µM
- TGI (ACHN renal): 15.4 µM
- GI50 (BT-549 breast): 2.64 µM
- TGI (BT-549 breast): 16.5 µM
- GI50 (CAKI-1 renal): 0.703 µM
- TGI (CAKI-1 renal): 18 µM
- GI50 (CCRF-CEM leukemia): 1.66 µM
- TGI (CCRF-CEM leukemia): 24.9 µM
- GI50 (COLO 205 colon): 3.36 µM
- TGI (COLO 205 colon): 11.1 µM
- GI50 (DU-145 prostate): 2.49 µM
- TGI (DU-145 prostate): 12.4 µM
- GI50 (EKVX NSCLC): 2.11 µM
- TGI (EKVX NSCLC): 14.8 µM
- GI50 (HCC-2998 colon): 1.65 µM
- TGI (HCC-2998 colon): 4.95 µM
- GI50 (HCT-116 colon): 0.801 µM
- TGI (HCT-116 colon): 12.5 µM
- GI50 (HCT-15 colon): 0.617 µM
- TGI (HCT-15 colon): 10.6 µM
- GI50 (HL-60(TB) leukemia): 1.34 µM
- TGI (HL-60(TB) leukemia): 11.7 µM
- GI50 (HOP-62 NSCLC): 4.78 µM
- TGI (HOP-62 NSCLC): 23.6 µM
- GI50 (HOP-92 NSCLC): 1.53 µM
- TGI (HOP-92 NSCLC): 17.8 µM
- GI50 (HS 578T breast): 1.85 µM
- TGI (HS 578T breast): 12.6 µM
- GI50 (HT29 colon): 2.39 µM
- TGI (HT29 colon): 10.1 µM
- GI50 (IGROV1 ovarian): 0.702 µM
- TGI (IGROV1 ovarian): 14.7 µM
- GI50 (K-562 leukemia): 0.553 µM
- TGI (K-562 leukemia): 20.6 µM
- GI50 (KM12 colon): 0.876 µM
- TGI (KM12 colon): 12.5 µM
- GI50 (LOX IMVI melanoma): 1.45 µM
- TGI (LOX IMVI melanoma): 14.4 µM
- GI50 (M14 melanoma): 1.21 µM
- TGI (M14 melanoma): 11.7 µM
- GI50 (MALME-3M melanoma): 10.1 µM
- TGI (MALME-3M melanoma): 22.6 µM
- GI50 (MCF7 breast): 0.475 µM
- TGI (MCF7 breast): 10.7 µM
- GI50 (MDA-MB-231 breast): 3.96 µM
- TGI (MDA-MB-231 breast): 16.9 µM
- GI50 (MDA-MB-435): 0.307 µM
- TGI (MDA-MB-435): 0.878 µM
- GI50 (MOLT-4 leukemia): 3.02 µM
- TGI (MOLT-4 leukemia): 17 µM
- GI50 (NCI-H226 lung): 5.94 µM
- TGI (NCI-H226 lung): 25.3 µM
- GI50 (NCI-H23 lung): 2.56 µM
- TGI (NCI-H23 lung): 13.1 µM
- GI50 (NCI-H460 lung): 1.74 µM
- TGI (NCI-H460 lung): 14.2 µM
- GI50 (NCI-H522 lung): 0.433 µM
- TGI (NCI-H522 lung): 4.57 µM
- GI50 (NCI/ADR-RES ovarian): 0.475 µM
- TGI (NCI/ADR-RES ovarian): 3.14 µM
- GI50 (OVCAR-3 ovarian): 0.813 µM
- TGI (OVCAR-3 ovarian): 13.2 µM
- GI50 (OVCAR-4 ovarian): 4.79 µM
- TGI (OVCAR-4 ovarian): 19.6 µM
- GI50 (OVCAR-5 ovarian): 3.24 µM
- TGI (OVCAR-5 ovarian): 14.4 µM
- GI50 (OVCAR-8 ovarian): 2.77 µM
- TGI (OVCAR-8 ovarian): 15.1 µM
- GI50 (PC-3 prostate): 0.788 µM
- TGI (PC-3 prostate): 11.4 µM
- GI50 (RPMI-8226 leukemia): 2.42 µM
- TGI (RPMI-8226 leukemia): 14.4 µM
- GI50 (RXF 393 renal): 1.41 µM
- TGI (RXF 393 renal): 5.57 µM
- GI50 (SF-268 CNS): 4.99 µM
- TGI (SF-268 CNS): 21.1 µM
- GI50 (SF-295 CNS): 0.331 µM
- TGI (SF-295 CNS): 1.27 µM
- GI50 (SF-539 CNS): 1.43 µM
- TGI (SF-539 CNS): 3.6 µM
- GI50 (SK-MEL-2 melanoma): 1.65 µM
- TGI (SK-MEL-2 melanoma): 18.3 µM
- GI50 (SK-MEL-28 melanoma): 4.04 µM
- TGI (SK-MEL-28 melanoma): 20.4 µM
- GI50 (SK-MEL-5 melanoma): 4.19 µM
- TGI (SK-MEL-5 melanoma): 16.4 µM
- GI50 (SK-OV-3 ovarian): 5.26 µM
- TGI (SK-OV-3 ovarian): 21 µM
- GI50 (SN12C renal): 3.03 µM
- TGI (SN12C renal): 14.5 µM
- GI50 (SNB-19 CNS): 1.9 µM
- TGI (SNB-19 CNS): 13.9 µM
- GI50 (SNB-75 CNS): 0.206 µM
- TGI (SNB-75 CNS): 2.01 µM
- GI50 (SR leukemia): 0.651 µM
- TGI (SR leukemia): 18.4 µM
- GI50 (SW-620 colon): 0.71 µM
- TGI (SW-620 colon): 16.9 µM
- GI50 (T-47D breast): 2.51 µM
- TGI (T-47D breast): 15.5 µM
- GI50 (TK-10 renal): 7.79 µM
- TGI (TK-10 renal): 20.6 µM
- GI50 (U251 CNS): 2.38 µM
- TGI (U251 CNS): 13.5 µM
- GI50 (UACC-257 melanoma): 11.1 µM
- TGI (UACC-257 melanoma): 26.1 µM
- GI50 (UACC-62 melanoma): 0.596 µM
- TGI (UACC-62 melanoma): 17.4 µM
- GI50 (UO-31 renal): 2.2 µM
- TGI (UO-31 renal): 16 µM
